Test results published in patent publication US12435083B2, “Cyclopropyl-(hetero)aryl-substituted ethylsulphonyl-pyridine derivatives” (BOEHRINGER INGELHEIM VETMEDICA GMBH, priority 2021, dated 2025).
Read-outs that look alike come from different tables or passages of the source.

Legend:
[1] = test system: adult Ctenocephalides felis fleas; assay: Contact activity against adult Ctenocephalides felis (treated surface, motility by machine vision, 24 h); settings: treated surface, 24h, read-out: EC80 (% motility reduction, adult C. felis, contact)
From the text: Example 7: Screening Method to Test Contact Activity of Compounds of Formula (I) Against Adult Ctenocephalides felis

[2] = test system: adult Rhipicephalus sanguineus ticks; assay: Contact activity against adult Rhipicephalus sanguineus (coated vial, mortality at 48 h); settings: Rhipicephalus sanguineus; 48 hours post-treatment, coated vial; read-out: EC50 (percentage mortality, adult R. sanguineus, contact)
Description: Example 5: Screening Method to Test Contact Activity of Compounds of Formula (I) Against Adult Rhipicephalus sanguineus
Compounds of formula (I) formulated in 100% DMSO were diluted in a solution containing acetone and Triton X-100 (0.02%). The resulting formulation was used to coat the inner walls of glass scintillation vials and the filter paper covering the cap of the vial. Once dried, ten adult R. sanguineus ticks were added to the vials. The vials were incubated at 24° C., 95% relative humidity, and 12 hours of light/12 hours of dark until evaluation. Ticks were visually evaluated for mortality at 48 hours post-treatment. Compound efficacy at a given dose is expressed as percentage mortality. A dose response series was implemented to determine EC50 values.
(§1) The four structurally closest prior art compounds (A), (B), (C) and (D) specifically excluded from the scope of formula (I) were characterized vis-a-vis selected compounds of formula (I) with regard to their potency in in vitro screening assays against fleas (Ctenocehalides felis) and ticks (Rhipicephalus sanguineus).
(§2) However, as explained above, spectrum of action against this range of species (i.e. fleas and ticks) is a desirable property of ectoparasiticides for veterinary use. In the following table 1 comparative experimental data of the in vitro assays are shown regarding flea membrane feeding (ingestion, blood feeding) activity against Ctenocephalides felis and contact activity against Rhipicephalus sanguineus.

[3] = test system: Aedes aegypti L1 larvae; assay: Activity against larvae of Aedes aegypti (L1 larvae, 384-well, image-based mortality); settings: 48 h at 27° C., 384-well, read-out: EC50 (percentage of mortality, A. aegypti L1 larvae)
Description: Example 3: Screening Method to Test Activity of Compounds of Formula (I) Against Larvae of Aedes aegypti
Eight A. aegypti L1 larvae in a total volume of 64 μL water were added to 384-well microplates containing compounds formulated in 100% DMSO. The plates were incubated for 48 h at 27° C. Individual well images were acquired and analyzed using a pipeline to quantitatively assess the amount of larvae biomass accumulating at the bottom of the well. The efficacy of a compound at a given dose is expressed as “percentage of mortality” and determined by comparison to average biomass descriptors of positive and negative control wells containing 1.0 μM Fipronil or DMSO only, respectively. Dose response assay were conducted to determine an EC50 value.

[4] = test system: Plutella xylostella; assay: Insecticidal test on Plutella xylostella (Chinese cabbage seedling dip); settings: 144 h, 500 ppm, seedling dip, 6 days after dip treatment, read-out: activity level (corrected mortality rate), Plutella xylostella
Description: Example 12: Insecticidal Test on Plutella xylostella
(§3) The compounds of formula (I) of the present invention or salts thereof were separately dispersed in water and diluted to 500 ppm. Ten adults of Plutella xylostella were released onto Chinese cabbage seedlings and allowed to lay eggs thereon. 2 days after the release of the adults, the seedling was dipped in the dispersion for about 30 seconds. After air dried, the seedling was kept in a room at 25° C. 6 days after the dip treatment, the numbers of the dead and alive insects were counted. The corrected mortality rate was calculated according to the following formula and the insecticidal activity was evaluated according to the following criteria. Corrected mortality rate (%)=100×(Survival rate in an untreated plot−Survival rate in a treated plot)/Survival rate in an untreated plot • A: the corrected mortality rate is 100% • B: the corrected mortality rate is 90 to 99% • C: the corrected mortality rate is 80 to 89% • D: the corrected mortality rate is 50 to 79%

[5] = test system: Laodelphax striatellus 3rd-instar nymphs; assay: Insecticidal test on Laodelphax striatellus (rice seedling dip); settings: 192 h, 500 ppm, seedling dip, 8 days after inoculation, read-out: activity level (corrected mortality rate), Laodelphax striatellus
Description: Example 13: Insecticidal Test on Laodelphax striatellus
as §3, with “Rice plant seedlings” for “Ten adults of Plutella xylostella”, “were” for “were released onto Chinese cabbage seedlings and allowed to lay eggs thereon. 2 days after the release of the adults, the seedling was”, “seedlings were put into a separate glass test tube and inoculated with ten 3rd-instar nymphs of Laodelphax striatellus and then the glass test tube” for “seedling”, “8” for “6”, “inoculation,” for “dip treatment,”

[6] = test system: Myzus persicae; assay: Insecticidal test on Myzus persicae (foliar application on potted Chinese cabbage); settings: 144 h, read-out: control efficacy level (control rate), Myzus persicae
From the text: Example 14: Insecticidal Test on Myzus persicae
The compounds of formula (I) of the present invention or salts thereof were separately dispersed in water and diluted to 500 ppm. Chinese cabbage plants were planted in plastic pots (diameter: 8 cm, height: 8 cm). Aphids (Myzus persicae) were propagated on the plants and then the number of surviving aphids was counted. The dispersion was applied to the foliage of the potted plants. After the plants were air dried, these were kept in a greenhouse. 6 days after the application, the number of the alive insects was counted on the plants. The control rate was calculated according to the following formula and the control efficacy was evaluated according to the following criteria. Control rate (%)=100−{(T×Ca)/(Ta×C)}×100 • Ta: the number of alive insects before the foliar application in a treated plot • T: the number of alive insects after the foliar application in a treated plot • Ca: the number of alive insects before the foliar application in an untreated plot • C: the number of alive insects after the foliar application in an untreated plot • A: the control rate is 100% • B: the control rate is 90 to 99% • C: the control rate is 80 to 89% • D: the control rate is 50 to 79%

[7] = test system: Spodoptera litura 2nd-instar larvae; assay: Insecticidal test on Spodoptera litura (cabbage leaf dip); settings: foliar, 192 h, 8 days after inoculation, read-out: activity level (corrected mortality rate), Spodoptera litura
Description: Example 11: Insecticidal Test on Spodoptera litura
as §3, with “Cabbage leaves” for “Ten adults of Plutella xylostella”, “were” for “were released onto Chinese cabbage seedlings and allowed to lay eggs thereon. 2 days after the release of the adults, the seedling was”, “leaves were placed in a plastic Petri dish with a diameter of 9 cm and inoculated with ten 2nd-instar larvae of Spodoptera litura, after which the dish” for “seedling”, “closed and then allowed to stand” for “kept”, “8” for “6”, “inoculation,” for “dip treatment,”

[8] = test system: adult Ctenocephalides felis fleas; assay: Ingestion activity (flea membrane feeding, blood feeding) against adult Ctenocephalides felis; settings: Ctenocephalides felis; bovine blood, 24h post treatment; read-out: EC80 (% motility reduction, adult C. felis, ingestion via membrane feeding)
From the text: Example 6: Screening Method to Test Ingestion Activity of Compounds of Formula (I) Against Adult Ctenocephalides felis
as §1
It is important to note that compounds that show better activity versus ticks are more desirable in the animal health field, as ticks are more difficult to control than fleas. Noteworthy, in particular with regard to fleas the illustrated comparative data are based on a flea membrane feeding (ingestion, blood feeding) assay. Data from this assay are more relevant for compounds intended to be delivered systemically to an animal via oral or injectable routes. Membrane feeding assays differ to primary screening laboratory contact assays in that the latter only measure the effect of the direct contact of selected compounds on the parasite, such as the flea or the tick. The information derived from laboratory contact assays is strictly limited to the ability of the compound to be absorbed through the parasite surface and to reach its molecular target, and no information can be gleaned from these contact assays as to whether the compound would also be active when presented orally to the ectoparasite itself in a blood meal, such as with the membrane feeding assay, and certainly not when administered orally to an animal host (e.g. “in vivo”) with subsequent exposure to the ectoparasite.
as §2

[9] = 500 ppm, foliar application, 6 days after application

CCS(=O)(=O)c1cc(-c2ccc(C3CC3)cc2)cnc1-n1nc2cc(SC(F)(F)F)ncc2c1Cl [Compound 27, 2-[3-chloro-6-[(trifluoromethyl)sulfanyl]pyrazolo[4,3-c]pyridin-2-yl]-5-(4-cyclopropylphenyl)-3-(ethanesulfonyl)pyridine] was tested, and the EC80 [1] was 1000 to 10000 nM, the EC50 [2] was < 10000 nM and the EC50 [3] was < 40 nM.

For CCS(=O)(=O)c1cc(-c2ccc(C3CC3)cc2)cnc1-n1cc2cnc(S(=O)(=O)C(F)(F)F)cc2n1 [Compound 30, 5-(4-cyclopropylphenyl)-3-(ethanesulfonyl)-2-[6-trifluoromethanesulfonylpyrazolo[4,3-c]pyridin-2-yl]pyridine], the EC80 [1] was 1000 to 10000 nM and the EC50 [3] was < 40 nM.

For CCS(=O)(=O)c1cc(-c2ccc(C3CC3)cc2)cnc1-c1ccc(OCC(F)(F)C(F)(F)F)cn1 [Compound 52, 5-(4-cyclopropylphenyl)-3-(ethanesulfonyl)-5′-(2,2,3,3,3-pentafluoropropoxy)-2,2′-bipyridine], the mortality at 500 ppm [4] was 100%, the mortality at 500 ppm [5] was 100% and the pest or weed control at 500 ppm [6, 9] was 100%. The EC50 [2] was < 10000 nM and the EC50 [3] was < 40 nM.

With CCS(=O)(=O)c1cc(-c2ccnc(C3CC3)c2)cnc1-c1nc2cc(C(F)(F)C(F)(F)F)nnc2n1C [Compound 60, 2′-cyclopropyl-5-(ethanesulfonyl)-6-[7-methyl-3-(1,1,2,2,2-pentafluoroethyl)imidazo[4,5-c]pyridazin-6-yl]-3,4′-bipyridine] the mortality at 500 ppm [4] was 100%, the mortality at 500 ppm [5] was 100% and the EC80 [1] was 1000 to 10000 nM. The EC50 [2] was 10000 to 100000 nM and the EC50 [3] was < 40 nM.

CCS(=O)(=O)c1cc(-c2ccc(C3CC3)cc2)cnc1-c1nc2cc(S(=O)(=O)C(F)(F)F)cnc2n1C [Compound 82, 5-(4-cyclopropylphenyl)-3-(ethanesulfonyl)-2-[3-methyl-6-trifluoromethanesulfonylimidazo[4,5-b]pyridin-2-yl]pyridine] gave a mortality at 500 ppm [4] of 100%, a mortality at 500 ppm [5] of 100% and an EC80 [1] of 1000 to 10000 nM. The EC50 [3] was < 40 nM.

CCS(=O)(=O)c1cc(-c2ccc(C3CC3)cc2)cnc1-c1nc2cc(SC(F)(F)F)cnc2n1C [Compound 83, 5-(4-cyclopropylphenyl)-3-(ethanesulfonyl)-2-[3-methyl-6-[(trifluoromethyl)sulfanyl]imidazo[4,5-b]pyridin-2-yl]pyridine] gave a mortality at 500 ppm [4] of 100%, a mortality at 500 ppm [5] of 100% and a pest or weed control at 500 ppm [6, 9] of 100%. The EC80 [1] was 1000 to 10000 nM and the EC50 [3] was < 40 nM.

For CCS(=O)(=O)c1cc(-c2ccc(C3CC3)cc2)cnc1-c1cc2n(CC(F)(F)F)cc(C(F)(F)F)cc-2n1 [Compound 107, 5-(4-cyclopropylphenyl)-3-(ethanesulfonyl)-2-[4-(2,2,2-trifluoroethyl)-6-(trifluoromethyl)pyrrolo[3,2-b]pyridin-2-yl]pyridine], the EC80 [1] was 1000 to 10000 nM, the mortality at 500 ppm [7] was 100% and the EC80 [8] was 1000 to 10000 nM.

CCS(=O)(=O)c1cc(-c2ccc(C3CC3)nc2)cnc1-c1ccc(OCC(F)(F)C(F)(F)F)cn1 [Compound 123, 6′-cyclopropyl-5-(ethanesulfonyl)-6-[5-(2,2,3,3,3-pentafluoropropoxy)pyridin-2-yl]-3,3′-bipyridine] gave a mortality at 500 ppm [4] of 100%, a mortality at 500 ppm [5] of 100% and a pest or weed control at 500 ppm ([6]; foliar) of 100%. It also gave a mortality at 500 ppm [7] of 100%.

CCS(=O)(=O)c1cc(-c2cccc(C3(C(F)(F)F)CC3)n2)cnc1-c1cc2n(CC(F)F)cc(C(F)(F)F)cc-2n1 [Compound 171, 6′-[4-(2,2-difluoroethyl)-6-(trifluoromethyl)pyrrolo[3,2-b]pyridin-2-yl]-5′-(ethanesulfonyl)-6-[I-(trifluoromethyl)cyclopropyl]-2,3′-bipyridine] was tested, and the mortality at 500 ppm [4] was 100%, the EC80 [1] was 1000 to 10000 nM and the mortality at 500 ppm [7] was 100%. It also gave an EC80 [8] of 1000 to 10000 nM.

In the case of CCS(=O)(=O)c1cc(-c2ccc(C3(C(F)(F)F)CC3)cc2)cnc1-c1nc2cc3c(cc2n1C)OC(F)(F)O3 [compound 129], the mortality at 500 ppm [4] is reported as 100%, the mortality at 500 ppm [5] is reported as 100% and the EC80 [1] is reported as 1000 to 10000 nM. It also gave a mortality at 500 ppm [7] of 100% and an EC80 [8] of 1000 to 10000 nM.

CCS(=O)(=O)c1cc(-c2nccc(C3CC3)n2)cnc1-c1nc2cc(C(F)(F)C(F)(F)F)nnc2n1C [compound 143] was tested, and the mortality at 500 ppm [4] was 100%, the mortality at 500 ppm [5] was 100% and the EC80 [1] was < 1000 nM. The mortality at 500 ppm [7] was 100% and the EC80 [8] was < 1000 nM.
